Counter-ions that a name gives are not always drawn.
Columns and labels:
[1] = biological target: PDE4 (cAMP-specific) (Homo sapiens, UniProt Q07343); assay: Inhibition of PDE4 activity, Method A (radioactive cAMP hydrolysis, cytosol of human PMNL); type: biochemical; settings: cAMP substrate, 1 μM motapizone
[2] = biological target: T1, PDE3 (cGMP-inhibited) (Homo sapiens, UniProt Q14432); assay: Inhibition of PDE3 activity, Method A (homogenates of human platelets); type: biochemical
T1 construct: investigated in homogenates of human platelets; from tissue; host or cells: homogenates of human platelets
Procedure: The PDE activity was determined according to Thompson et al. (Adv Cycl Nucl Res 10: 69-92, 1979) with some modifications (Bauer and Schwabe, Naunyn-Schmiedeberg's Arch Pharmacol 311: 193-198, 1980). The test samples contained 20 mM Tris (pH 7.4), 5 mM MgCl2, 0.5 μM cAMP or cGMP, [^3H]cAMP or [^3H]cGMP (about 30 000 cpm/sample), the PDE isoenzyme-specific additives described in greater detail below, the indicated concentrations of inhibitor and an aliquot of the enzyme solution in a total sample volume of 200 μl. Dilution series of the compounds according to the invention were prepared in DMSO and further diluted in the samples [1:100 (v/v)], to give the desired end concentration of the inhibitors at a DMSO concentration of 1% (v/v), which for its part has only a minute effect on PDE activity.
After preincubation at 37° C. for 5 minutes, the reaction was started by addition of the substrate (cAMP or cGMP). The samples were incubated at 37° C. for a further 15 min. The reaction was terminated by addition of 50 μl 0.2 N HCl. After cooling on ice for 10 minutes and addition of 25 μg 5′-nucleotidase (snake venom from Crotalus atrox), the mixture was again incubated at 37° C. for 10 mih and the samples were then applied to QAE Sephadex A-25 columns (sample volume 1 ml). The columns were eluted with 2 ml of 30 mM ammonium formate (pH 6.0). The radioactivity of the eluate was measured and corrected by the corresponding blank values (measured in the presence of denatured protein); the blank values were less than 5% of the total radioactivity. In no case did the proportion of hydrolyzed nucleotide exceed 30% of the original substrate concentration.
PDE3 (cGMP-inhibited) was investigated in homogenates of human platelets (see Schudt et al., Biochem Pharmacol 1991: 42, 153-162) using cAMP or cGMP as substrate.
The IC50 values were determined from the concentration-inhibition curves by nonlinear regression.

[3] = biological target: T2, PDE3A1 (Homo sapiens, UniProt Q14432); assay: Inhibition of recombinant PDE3A1, Method B (SPA test); type: biochemical; settings: 0.5 μM cAMP, read-out: PDE3 Inhibition [measured as −logIC50 (mol/l)] (converted)
T2 construct: The whole ORF was subcloned into pBacPak9 (Clontech, Palo Alto) using EcoRi; made in house; host or cells: baculovirus (pBacPak9), SF21 insect cells (virus made in SF9); 1000 x g supernatant of the homogenate
From the text: The cDNA for PDE3A1 (GB no. U36798) was isolated in 2 steps using PCR. A 3′ terminal cDNA fragment of PDE3A1 was amplified from fat cells cDNA (Clontech, Palo Alto) using primers OZ 458 (5′-[…]-3′) and OZ 457 (5′-[…]-3′). The 5′ terminal cDNA fragment of PDE3A1 was amplified from Placenta cDNA (Clontech, Palo Alto) using primers OZ 455 (5′-[…]-3′) and OZ 456 (5′-[…]-3′). The PCR products were cloned into pCR2.1-Topo (Invitrogen, Groningen, NL) under standard conditions (the manufacturer's instructions). The 3′ fragment was cut out with HindII and cloned into the HindII site of the construct carrying the 5′ fragment. The whole ORF was subcloned into pBacPak9 (Clontech, Palo Alto) using EcoRi. Aminoacid 12 is Aspartic Acid like in sequence GB no. AJ005036, aa 69 and aa 110 are respective Serine and Glycine like in both sequences GB no. AJ005036 and GB no. M91667.
(§1) The recombinant baculovirus was prepared by means of homologous recombination in SF9 insect cells. The expression plasmids were cotransfected with Bac-N-Blue (Invitrogen, Groningen, NL) or Baculo-Gold DNA (Pharmingen, Hamburg) using a standard protocol (Pharmingen, Hamburg). Wt virus-free recombinant virus supernatants were selected using plaque assay methods. After that, high-titre virus supernatants were prepared by amplifying 3 times. PDEs were expressed in SF21 cells by infecting 2×10^6 cells/ml with an MOI (multiplicity of infection) between 1 and 10 in serum-free SF900 medium (Life Technologies, Paisley, UK). The cells were cultured at 28° C. for 48-72 hours, after which they were pelleted for 5-10 min at 1000 g and 4° C.
(§2) The SF21 insect cells were resuspended, at a concentration of approx. 10^7 cells/ml, in ice-cold (4° C.) homogenization buffer (20 mM Tris, pH 8.2, containing the following additions: 140 mM NaCl, 3.8 mM KCl, 1 mM EGTA, 1 mM MgCl2, 10 mM β-mercaptoethanol, 2 mM benzamidine, 0.4 mM Pefablock, 10 μM leupeptin, 10 μM pepstatin A, 5 μM trypsin inhibitor) and disrupted by ultrasonication. The homogenate was then centrifuged for 10 min at 1000× g and the supernatant was stored at −80° C. until subsequent use (see below). The protein content was determined by the Bradford method (BioRad, Munich) using BSA as the standard.
PDE3A1 and PDE4B2 activities were inhibited by the said compounds in a modified SPA (scintillation proximity assay) test, supplied by Amersham Biosciences (see procedural instructions “phosphodiesterase [3H]cAMP SPA enzyme assay, code TRKQ 7090”), carried out in 96-well microtitre plates (MTP's). The test volume is 100 μl and contains 20 mM Tris buffer (pH 7.4), 0.1 mg of BSA (bovine serum albumin)/ml, 5 mM Mg^2+, 0.5 μM cAMP (including about 50,000 cpm of [3H]cAMP), 1 μl of the respective substance dilution in DMSO and sufficient recombinant PDE (1000× g supernatant, see above) to ensure that 10-20% of the cAMP is converted under the said experimental conditions. […] After a preincubation of 5 min at 37° C., the reaction is started by adding the substrate (cAMP) and the assays are incubated for a further 15 min; after that, they are stopped by adding SPA beads (50 μl). […] After the beads have been sedimented (>30 min), the MTP's are analyzed in commercially available luminescence detection devices. The corresponding IC50 values of the compounds for the inhibition of PDE activities are determined from the concentration-effect curves by means of non-linear regression.

[4] = biological target: T3, PDE4B2 (Homo sapiens, UniProt Q07343); assay: Inhibition of recombinant PDE4B2, Method B (SPA test); type: biochemical; settings: 0.5 μM cAMP, read-out: PDE4 Inhibition [measured as −logIC50 (mol/l)] (converted)
T3 construct: made in house; host or cells: baculovirus, SF21 insect cells (virus made in SF9); 1000 x g supernatant of the homogenate
Procedure: The PDE4B2 (GB no. M97515) was a gift of Prof. M. Conti (Stanford University, USA). It was amplified from the original plasmid (pCMV5) via PCR with primers Rb9 (5′-[…]-3′) and Rb10 (5′-[…]-3′) and cloned into the pCR-Bac vector (Invitrogen, Groningen, NL).
as §1, §2
PDE3A1 and PDE4B2 activities were inhibited by the said compounds in a modified SPA (scintillation proximity assay) test, supplied by Amersham Biosciences (see procedural instructions “phosphodiesterase [3H]cAMP SPA enzyme assay, code TRKQ 7090”), carried out in 96-well microtitre plates (MTP's). The test volume is 100 μl and contains 20 mM Tris buffer (pH 7.4), 0.1 mg of BSA (bovine serum albumin)/ml, 5 mM Mg^2+, 0.5 μM cAMP (including about 50,000 cpm of [3H]cAMP), 1 μl of the respective substance dilution in DMSO and sufficient recombinant PDE (1000× g supernatant, see above) to ensure that 10-20% of the cAMP is converted under the said experimental conditions. […] After a preincubation of 5 min at 37° C., the reaction is started by adding the substrate (cAMP) and the assays are incubated for a further 15 min; after that, they are stopped by adding SPA beads (50 μl). In accordance with the manufacturer's instructions, the SPA beads had previously been resuspended in water, but were then diluted 1:3 (v/v) in water; the diluted solution also contains 3 mM IBMX to ensure a complete PDE activity stop. After the beads have been sedimented (>30 min), the MTP's are analyzed in commercially available luminescence detection devices. The corresponding IC50 values of the compounds for the inhibition of PDE activities are determined from the concentration-effect curves by means of non-linear regression.

T2 sequence (Q14432 whole entry): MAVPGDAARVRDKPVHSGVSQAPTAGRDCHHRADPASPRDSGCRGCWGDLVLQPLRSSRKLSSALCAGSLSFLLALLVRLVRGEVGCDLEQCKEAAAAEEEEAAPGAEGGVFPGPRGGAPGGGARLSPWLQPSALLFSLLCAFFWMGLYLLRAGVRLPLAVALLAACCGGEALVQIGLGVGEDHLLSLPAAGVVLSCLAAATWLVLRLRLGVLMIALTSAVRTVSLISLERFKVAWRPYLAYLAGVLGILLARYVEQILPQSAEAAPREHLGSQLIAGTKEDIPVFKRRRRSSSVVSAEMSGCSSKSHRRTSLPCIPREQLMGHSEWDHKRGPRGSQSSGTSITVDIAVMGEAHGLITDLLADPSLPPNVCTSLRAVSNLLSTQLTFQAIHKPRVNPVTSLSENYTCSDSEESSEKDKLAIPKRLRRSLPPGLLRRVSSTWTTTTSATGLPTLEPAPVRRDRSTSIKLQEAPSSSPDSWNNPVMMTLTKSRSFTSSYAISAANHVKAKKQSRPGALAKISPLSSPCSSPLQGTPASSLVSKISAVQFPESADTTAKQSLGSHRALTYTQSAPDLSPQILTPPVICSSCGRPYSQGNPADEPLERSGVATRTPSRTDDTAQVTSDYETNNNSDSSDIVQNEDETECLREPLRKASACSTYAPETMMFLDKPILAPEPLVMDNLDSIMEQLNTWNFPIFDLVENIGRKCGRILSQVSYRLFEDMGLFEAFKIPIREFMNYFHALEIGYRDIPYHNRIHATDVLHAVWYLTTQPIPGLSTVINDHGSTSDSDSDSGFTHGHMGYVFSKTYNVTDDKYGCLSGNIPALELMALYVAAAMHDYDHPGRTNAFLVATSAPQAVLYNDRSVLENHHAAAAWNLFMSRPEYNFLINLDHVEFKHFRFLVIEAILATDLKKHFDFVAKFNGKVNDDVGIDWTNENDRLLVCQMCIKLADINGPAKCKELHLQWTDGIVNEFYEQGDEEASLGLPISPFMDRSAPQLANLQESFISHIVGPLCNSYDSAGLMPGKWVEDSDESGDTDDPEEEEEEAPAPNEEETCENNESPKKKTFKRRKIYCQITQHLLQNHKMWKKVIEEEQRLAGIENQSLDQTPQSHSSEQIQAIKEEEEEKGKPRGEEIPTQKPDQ
T3 sequence (Q07343 1-564 isoform Q07343-2): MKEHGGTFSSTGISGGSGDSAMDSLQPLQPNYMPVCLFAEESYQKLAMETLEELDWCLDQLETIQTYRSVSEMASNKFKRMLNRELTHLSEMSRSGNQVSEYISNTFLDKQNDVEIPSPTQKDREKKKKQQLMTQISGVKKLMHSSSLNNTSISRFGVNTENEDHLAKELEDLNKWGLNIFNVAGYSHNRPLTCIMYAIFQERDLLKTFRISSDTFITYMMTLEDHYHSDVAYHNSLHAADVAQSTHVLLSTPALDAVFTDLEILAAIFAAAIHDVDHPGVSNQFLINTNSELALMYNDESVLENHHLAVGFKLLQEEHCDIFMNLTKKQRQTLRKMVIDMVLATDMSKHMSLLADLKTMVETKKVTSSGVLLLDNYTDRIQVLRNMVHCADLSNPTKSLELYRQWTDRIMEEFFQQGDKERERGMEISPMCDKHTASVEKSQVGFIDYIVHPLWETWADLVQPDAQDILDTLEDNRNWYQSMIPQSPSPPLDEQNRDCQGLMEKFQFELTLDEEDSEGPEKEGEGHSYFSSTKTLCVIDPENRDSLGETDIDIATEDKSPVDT
T1 sequence (Q14432 whole entry): as the sequence (Q14432 whole entry) above
PDE4 (cAMP-specific), sequence (Q07343 whole entry): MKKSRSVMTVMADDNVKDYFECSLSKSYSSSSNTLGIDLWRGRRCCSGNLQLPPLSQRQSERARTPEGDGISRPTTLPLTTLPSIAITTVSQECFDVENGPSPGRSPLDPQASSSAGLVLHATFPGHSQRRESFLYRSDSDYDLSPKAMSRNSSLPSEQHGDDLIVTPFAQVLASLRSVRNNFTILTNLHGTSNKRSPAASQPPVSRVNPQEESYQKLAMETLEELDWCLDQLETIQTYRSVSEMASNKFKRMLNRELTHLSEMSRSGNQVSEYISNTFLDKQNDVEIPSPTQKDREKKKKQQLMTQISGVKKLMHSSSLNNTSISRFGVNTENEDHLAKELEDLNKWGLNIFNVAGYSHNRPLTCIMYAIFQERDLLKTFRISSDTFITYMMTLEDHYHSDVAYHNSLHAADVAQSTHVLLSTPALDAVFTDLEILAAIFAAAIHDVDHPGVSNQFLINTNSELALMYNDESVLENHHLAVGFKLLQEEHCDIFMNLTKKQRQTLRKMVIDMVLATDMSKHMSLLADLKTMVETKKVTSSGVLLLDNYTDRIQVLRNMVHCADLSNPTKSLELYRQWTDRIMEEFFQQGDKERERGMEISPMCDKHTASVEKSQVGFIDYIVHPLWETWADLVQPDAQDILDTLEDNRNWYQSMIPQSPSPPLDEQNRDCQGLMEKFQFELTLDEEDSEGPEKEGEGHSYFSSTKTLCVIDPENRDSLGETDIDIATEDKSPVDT

PDE4 Inhibition [measured as −logIC50 (mol/l)] [1] | PDE3 Inhibition [measured as −logIC50 (mol/l)] [2] | IC50 [3] | melting point | IC50 [4] | SMILES
7.8 -log(mol/l) | 6.8 −log(mol/l) (pIC50) | – | – | – | COc1ccc(OC)c(S(=O)(=O)N2CCC(N3N=C(c4ccc(OC)c(OC)c4)CCC3=O)CC2)c1 [Compound 17]
8.3 -log(mol/l) | 6.9 −log(mol/l) (pIC50) | – | – | – | COc1ccc(C2=NN(C3CCN(S(=O)(=O)c4cccs4)CC3)C(=O)CC2)cc1OC [Compound 19, 6-(3,4-Dimethoxy-phenyl)-2-[1-(thiophene-2-sulfonyl)-piperidin-4-yl]-45-dihydro-2H-pyridazin-3-one]
– | – | 126 nM | 152 to 154 °C | 7.94 nM | COc1ccc(C2=NN(C3CCN(C(=O)c4ccccc4)CC3)C(=O)CC2)cc1OC [Compound 23, 6-(3,4-Dimethoxy-phenyl)-2-[1-(1-phenyl-methanoyl)-piperidin-4-yl]-4,5-dihydro-2H-pyridazin-3-one]
– | – | 15.8 nM | 156 to 159 °C | 2.51 nM | COc1ccc(C2=NN(C3CCN(C(=O)c4c(Cl)cc(Cl)cc4Cl)CC3)C(=O)CC2)cc1OC [Compound 25, 6-(3,4-Dimethoxy-phenyl)-2-{1-[1-(2,4,6-trichloro-phenyl)-methanoyl]-piperidin-4-yl}-4,5-dihydro-2H-pyridazin-3-one]
– | – | > 10000 nM | 194 to 199 °C | 20 nM | COc1ccc(C2=NN(C3CCN(CC(=O)N4CCN(C)CC4)CC3)C(=O)CC2)cc1OC.Cl.Cl [Compound 28, 6-(3,4-Dimethoxy-phenyl)-2-{1-[2-(4-methyl-piperazin-1-yl)-2-oxo-ethyl]-piperidin-4-yl}-4,5-dihydro-2H-pyridazin-3-one dihydrochloride]
– | – | 3160 nM | – | 15.8 nM | COc1ccc(C2=NN(C3CCN(C(=O)CN4CCN(c5ccncc5)CC4)CC3)C(=O)CC2)cc1OC [Compound 29, 6-(3,4-Dimethoxy-phenyl)-2-{1-[2-(4-pyridin-4-yl-piperazin-1-yl)-ethanoyl]-piperidin-4-yl}-4,5-dihydro-2H-pyridazin-3-one dihydrochloride]
– | – | 3980 nM | 126 to 127 °C | 39.8 nM | COc1ccc(C2=NN(C3CCN(C(=O)CN4CCN(C(c5ccccc5)c5ccccc5)CC4)CC3)C(=O)CC2)cc1OC.Cl.Cl [Compound 31, 6-(3,4-Dimethoxy-phenyl)-2-(1-{2-[4-(1,1-diphenyl-methyl)-piperazin-1-yl]-ethanoyl}-piperidin-4-yl)-4,5-dihydro-2H-pyridazin-3-one dihydrochloride]

From US20060167001A1, “Pyridazinone-derivatives as pde4 inhibitors” (priority 2002, published 2006)
